# Molecular target: T1, haematopoietic prostaglandin D synthase (H-PGDS) (Homo sapiens, UniProt O60760)
# T1 construct: Full length human H-PGDS cDNA (Invitrogen Ultimate ORF IOH13026) was amplified by PCR; 6-His (N); TEV protease cleavage site (N); made in house; host or cells: E. coli BL21 (DE3*)
# Assay: H-PGDS RapidFire high throughput mass spectrometry assay (conversion of PGH2 to PGD2)
# Format: biochemical
# Conditions: 10 nM H-PGDS, PGH2 formed in situ by COX-2 from arachidonic acid; four parameter curve fit; read-out: Potency Range (mean pIC50) (converted)
# Description: The H-PGDS RapidFire™ mass spectrometric assay monitors conversion of prostaglandin H2 (PGH2) to prostaglandin D2 (PGD2) by haematopoietic prostaglandin D synthase (H-PGDS). In the assay format described here, the substrate (PGH2) is formed in situ by the action of cyclooxygenase-2 on arachidonic acid. This first step is set up to be fast, and generates a burst of PGH2 at ˜10 μM. The PGH2 is then further converted to PGD2 by the H-PGDS enzyme. […] Plates are then read on the RapidFire™ high throughput solid phase extraction system (Agilent) which incorporates a solid phase extraction step coupled to a triple quadrupole mass spectrometer (AB SCIEX). Relative levels of PGD2 and PGF2α, which acts as a surrogate for substrate, are measured and a percent conversion calculated. Inhibitors are characterised as compounds which lower the conversion of PGH2 to PGD2.
# Full length human H-PGDS cDNA (Invitrogen Ultimate ORF IOH13026) was amplified by PCR with the addition of a 5′ 6-His tag and TEV protease cleavage site. The PCR product was digested with NdeI and XhoI and ligated into pET22b+ (Merck Novagen®). Expression was carried out in E. coli strain BL21 (DE3*) using auto-induction Overnight Express™ Instant TB medium (Merck Novagen®) supplemented with 1% glycerol. The culture was first grown at 37° C. and the temperature was reduced to 25° C. when OD600 reached 2.0. Cells were harvested by centrifugation after a further 18 hours. 10 g of E. coli cell pellet was suspended to a total volume of 80 mL in lysis buffer (20 mM Tris-Cl pH 7.5, 300 mM NaCl, 20 mM imidazole, 5 mM β-mercaptoethanol, 10% glycerol). 1 mg/mL protease inhibitors (Protease Inhibitor Cocktail Set III, Merck Calbiochem®) and 1 mg/mL lysozyme were added to the cell suspension. The suspension was then sonicated for 5 min (UltraSonic Processor VCX 750, Cole-Parmer Instrument Co.) with a micro probe (50% amplitude, 10 sec on/off) and then centrifuged at 100,000 g for 90 minutes (at 4° C.). The supernatant was loaded onto a Ni-NTA HiTrap column (5 mL, GE Healthcare, pre-equilibrated in lysis buffer). The column was washed with 10 column volumes of lysis buffer and eluted with lysis buffer containing 500 mM imidazole. The pooled protein peak fractions were concentrated using a 10 kDa centrifugal filter at 3500 g and 4° C. (Amicon Ultra-15 centrifugal filter unit with Ultracel-10 membrane from Millipore). Further purification of the concentrated protein was carried out using gel filtration chromatography on a HiLoad 26/600 Superdex 75 preparative grade column (GE Healthcare Life Sciences) using 50 mM Tris pH 7.5, 50 mM NaCl, 1 mM dithiothreitol, 1 mM MgCl2. Fractions containing the protein were pooled, concentrated as described above, and stored at −80° C.
# The full length human COX-2 gene (accession number L15326) was amplified by PCR to generate an EcoRI—HindIII fragment containing an in-frame FLAG tag. This was subcloned into pFastBac 1 (Invitrogen). The COX-2 FLAG plasmid was recombined into the baculovirus genome according to the BAC-to-BAC protocol described by Invitrogen. Transfection into Spodoptera frugiperda (Sf9) insect cells was performed using Cellfectin (Invitrogen), according to the manufacturer's protocol. Super Sf9 cells were cultured in EX420 media (SAFC Biosciences) to a density of approximately 1.5×10^6 cells/mL within a wave bioreactor. Recombinant virus was added at a Multiplicity of Infection (MOI) of 5 and the culture was allowed to continue for 3 days. Cells were harvested using a continuous feed centrifuge run at 2500 g at a rate of approximately 2 L/min with cooling. The resultant cell slurry was re-centrifuged in pots (2500 g, 20 min, 4° C.) and the cell paste was stored at −80° C. 342 g of cell paste was re-suspended to a final volume of 1600 mL in a buffer of 20 mM Tris-Cl pH 7.4, 150 mM NaCl, 0.1 mM EDTA, 1.3% w/v n-octyl-[…] containing 20 Complete EDTA-free Protease Inhibitor Cocktail tablets (Roche Applied Science). […]
# T1 sequence (O60760 whole entry): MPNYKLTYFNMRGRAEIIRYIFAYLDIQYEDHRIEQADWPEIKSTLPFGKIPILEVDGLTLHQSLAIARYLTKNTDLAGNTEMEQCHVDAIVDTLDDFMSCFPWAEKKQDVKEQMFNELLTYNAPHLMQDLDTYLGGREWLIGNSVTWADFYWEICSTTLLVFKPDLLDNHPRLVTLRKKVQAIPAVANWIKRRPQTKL
row,Structure (SMILES),IC50 [nM]
1,"C[C@H]1CCN1c1cc2ncc(C(=O)NC3CCN(C(=O)C(C)(C)O)CC3)cc2cn1 [Example 24, (S)—N-(1-(2-Hydroxy-2-methylpropanoyl)piperidin-4-yl)-7-(2-methylazetidin-1-yl)-1,6-naphthyridine-3-carboxamide]",10 to 79.4
2,"CC(C)(O)[C@H]1CC[C@H](NC(=O)c2cnc3nc(N4CCC4)c(Cl)cc3c2)CC1 [Example 25, 7-(Azetidin-1-yl)-6-chloro-N-(trans-4-(2-hydroxypropan-2-yl)cyclohexyl)-1,8-naphthyridine-3-carboxamide]",< 10
3,"C[C@H]1CCN1c1cc2ncc(C(=O)N[C@H]3C[C@H](C(C)(C)O)C3)cc2cn1 [Example 26, N-(trans-3-(2-Hydroxypropan-2-yl)cyclobutyl)-7-((S)-2-methylazetidin-1-yl)-1,6-naphthyridine-3-carboxamide]",10 to 79.4
4,"CC(C)(O)[C@H]1CC[C@H](NC(=O)c2cnc3nc(C4CC4)c(Cl)cc3c2)CC1 [Example 27, 6-Chloro-7-cyclopropyl-N-((trans)-4-(2-hydroxypropan-2-yl)cyclohexyl)-1,8-naphthyridine-3-carboxamide]",< 10
5,"C[C@@H]1CNC(=O)[C@H]1NC(=O)c1cnc2cc(N3CC[C@@H]3C)ncc2c1 [Example 28, N-((3S,4R)-4-Methyl-2-oxopyrrolidin-3-yl)-7-((S)-2-methylazetidin-1-yl)-1,6-naphthyridine-3-carboxamide]",10 to 79.4
6,"O=C(N[C@H]1CCNC1=O)c1cnc2cc(C3CC3)ncc2c1 [Example 29, (S)-7-Cyclopropyl-N-(2-oxopyrrolidin-3-yl)-1,6-naphthyridine-3-carboxamide]",10 to 79.4
7,"C[C@]1(O)CC[C@H](NC(=O)c2cnc3cc(C4CC4)ncc3c2)CC1 [Example 30, 7-Cyclopropyl-N-((1r,4r)-4-hydroxy-4-methylcyclohexyl)-1,6-naphthyridine-3-carboxamide]",100 to 1000
8,"C[C@]1(O)C[C@@H](NC(=O)c2cnc3cc(C4CC4)ncc3c2)C1 [Example 31, 7-Cyclopropyl-N-((1s,3s)-3-hydroxy-3-methylcyclobutyl)-1,6-naphthyridine-3-carboxamide]",100 to 1000
9,"CC(C)(O)[C@H]1C[C@H](NC(=O)c2cnc3cc(C4CC4)ncc3c2)C1 [Example 32, 7-Cyclopropyl-N-(trans-3-(2-hydroxypropan-2-yl)cyclobutyl)-1,6-naphthyridine-3-carboxamide]",10 to 79.4
10,"O=C(N[C@H]1CC[C@@](O)(C(F)F)CC1)c1cnc2cc(C3CC3)ncc2c1 [Example 33, 7-Cyclopropyl-N-((1r,4r)-4-(difluoromethyl)-4-hydroxycyclohexyl)-1,6-naphthyridine-3-carboxamide]",100 to 1000
11,"O=C(N[C@H]1CC[C@H](N2CC(F)C2)CC1)c1cnc2cc(C3CC3)ncc2c1 [Example 35, 7-Cyclopropyl-N-(trans-4-(3-fluoroazetidin-1-yl)cyclohexyl)-1,6-naphthyridine-3-carboxamide]",10 to 79.4
12,"O=C(N[C@H]1CC[C@](O)(C(F)F)CC1)c1cnc2cc(C3CC3)ncc2c1 [Example 36, 7-Cyclopropyl-N-((1s,4s)-4-(difluoromethyl)-4-hydroxycyclohexyl)-1,6-naphthyridine-3-carboxamide]",100 to 1000
13,"O=C(N[C@H]1CC[C@H](N[C@H](CO)C(F)(F)F)CC1)c1cnc2cc(C3CC3)ncc2c1 [Example 37, 7-Cyclopropyl-N-((trans)-4-(((R)-1,1,1-trifluoro-3-hydroxypropan-2-yl)amino)cyclohexyl)-1,6-naphthyridine-3-carboxamide]",10 to 79.4
14,"O=C(N[C@H]1CC[C@H](N2CC(F)(F)C2)CC1)c1cnc2cc(C3CC3)ncc2c1 [Example 38, 7-Cyclopropyl-N-(trans-4-(3,3-difluoroazetidin-1-yl)cyclohexyl)-1,6-naphthyridine-3-carboxamide]",10 to 79.4
15,"O=C(N[C@H]1C[C@](O)(C(F)(F)F)C1)c1cnc2cc(C3CC3)ncc2c1 [Example 40, 7-Cyclopropyl-N-((1s,3s)-3-hydroxy-3-(trifluoromethyl)cyclobutyl)-1,6-naphthyridine-3-carboxamide]",100 to 1000
16,"C[C@]1(O)C[C@H](NC(=O)c2cnc3cc(C4CC4)ncc3c2)C1 [Example 41, 7-Cyclopropyl-N-((1r,3s)-3-hydroxy-3-methylcyclobutyl)-1,6-naphthyridine-3-carboxamide]",100 to 1000
17,"O=C(N[C@H]1C[C@@H](N[C@H](CO)C(F)(F)F)C1)c1cnc2cc(C3CC3)ncc2c1 [Example 42, 7-Cyclopropyl-N-(cis-3-(((R)-1,1,1-trifluoro-3-hydroxypropan-2-yl)amino)cyclobutyl)-1,6-naphthyridine-3-carboxamide]",100 to 1000
18,"O=C(N[C@H]1C[C@H](N[C@H](CO)C(F)(F)F)C1)c1cnc2cc(C3CC3)ncc2c1 [Example 43, 7-Cyclopropyl-N-(trans-3-(((R)-1,1,1-trifluoro-3-hydroxypropan-2-yl)amino)cyclobutyl)-1,6-naphthyridine-3-carboxamide]",100 to 1000
19,"O=C(N[C@H]1CCNC1=O)c1cnc2nc(C3CC3)ccc2c1 [Example 44, (S)-7-Cyclopropyl-N-(2-oxopyrrolidin-3-yl)-1,8-naphthyridine-3-carboxamide]",10 to 79.4
20,"C[C@]1(O)C[C@@H](NC(=O)c2cnc3nc(C4CC4)ccc3c2)C1 [Example 45, 7-Cyclopropyl-N-((1s,3s)-3-hydroxy-3-methylcyclobutyl)-1,8-naphthyridine-3-carboxamide]",100 to 1000
21,"C[C@]1(O)C[C@H](NC(=O)c2cnc3nc(C4CC4)ccc3c2)C1 [Example 46, 7-Cyclopropyl-N-((1r,3s)-3-hydroxy-3-methylcyclobutyl)-1,8-naphthyridine-3-carboxamide]",100 to 1000
22,"CC(C)(O)[C@H]1C[C@H](NC(=O)c2cnc3nc(C4CC4)ccc3c2)C1 [Example 47, 7-Cyclopropyl-N-(trans-3-(2-hydroxypropan-2-yl)cyclobutyl)-1,8-naphthyridine-3-carboxamide]",10 to 79.4
23,"C[C@]1(O)CC[C@H](NC(=O)c2cnc3nc(C4CC4)ccc3c2)CC1 [Example 48, 7-Cyclopropyl-N-((1r,4r)-4-hydroxy-4-methylcyclohexyl)-1,8-naphthyridine-3-carboxamide]",10 to 79.4
24,"COc1ccc2cc(C(=O)N[C@H]3CC[C@H](C(C)(C)O)CC3)cnc2n1 [Example 50, N-(trans-4-(2-Hydroxypropan-2-yl)cyclohexyl)-7-methoxy-1,8-naphthyridine-3-carboxamide]",10 to 79.4
25,"COc1cc2ncc(C(=O)N[C@H]3CC[C@H](C(C)(C)O)CC3)cc2cn1 [Example 51, N-(trans-4-(2-Hydroxypropan-2-yl)cyclohexyl)-7-methoxy-1,6-naphthyridine-3-carboxamide]",10 to 79.4
26,"O=C(N[C@H]1CC[C@@](O)(C(F)F)CC1)c1cnc2nc(C3CC3)ccc2c1 [Example 52, 7-Cyclopropyl-N-((1r,4r)-4-(difluoromethyl)-4-hydroxycyclohexyl)-1,8-naphthyridine-3-carboxamide]",100 to 1000
